Marks after values point to notes of the source that are not given here. Bridge positions count the residues as written; N and C are the ends. Square brackets hold non-standard residues; d marks the D form. Peptide text beside a SMILES is read from it.
Tests used:
[1] = tested on: Adult neural stem cells; experiment: Flow cytometry for early neuronal marker Doublecortin; conditions: Table 6; 100 nM; 4 days
[2] = tested on: mouse adult neural stem cells; experiment: ATP-assay: proliferation (ATP levels) of neurosphere-derived cells; conditions: for proliferation of neural stem cells: cAMP activators, GPCR-independent
[3] = tested on: cAMP activation in mouse adult neural stem cells; experiment: cAMP detection (HitHunter EFC Cyclic AMP Chemiluminescence Assay); conditions: for Fold Induction cAMP: vs vehicle
[4] = Table 2, 1 nM (cAMP concentration)
[5] = Table 2, 100 nM (cAMP concentration)
[6] = Table 2, 1000 nM, 4 days, vs vehicle
[7] = Table 2, 10 nM (cAMP concentration)
[8] = Table 1, 100 nM, after 15 minutes
[9] = Table 1, 100 nM, 4 days in culture
[10] = Mus musculus, Neural stem cell, 96 h, read-out: Fold Induction ATP

C[C@H](NC(=O)[C@@H](Cc1c[nH]c2ccccc12)NC(=O)[C@@H](N)Cc1c[nH]cn1)C(=O)N[C@@H](Cc1c[nH]c2ccccc12)C(=O)N[C@H](Cc1ccccc1)C(=O)N[C@@H](CCCCN)C(N)=O [(D-Trp7.Ala8.D-Phe10)-α-Melanocyte stimulating hormone F: 6-11/GHRP] (H-H[dW]AW[dF]K-NH2; N-terminus and C-terminus assumed)
% Doublecortin-positive cells [1]: 5.3%

CC(C)C[C@H](NC(=O)[C@H](Cc1ccccc1)NC(=O)CNC(=O)[C@H](NC(=O)[C@@H](N)Cc1ccc(O)cc1)[C@H](C)O)C(=O)N[C@H](C(=O)O)[C@@H](C)O [DTLET]
% Doublecortin-positive cells [1]: 4.1%
ATP (nM ATP/well) ([2]; Table 2, 10 nM, 4 days): 9.2 ± 0.9 nM ATP/well

CC(C)C[C@H](NC(=O)[C@H](CC(C)C)NC(=O)[C@@H](Cc1c[nH]c2ccccc12)NC(=O)[C@H](Cc1ccccc1)NC(=O)[C@@H](Cc1c[nH]c2ccccc12)NC(=O)[C@H](CCC(N)=O)NC(=O)[C@H](CCC(N)=O)NC(=O)[C@@H]1CCCN1C(=O)[C@H](CCCCN)NC(=O)[C@@H]1CCCN1C(=O)[C@@H](CCCNC(=N)N)NC(=O)[C@@H]1CCCN1C(=O)CNC(=O)[C@H](CC(C)C)NC(=O)[C@H](CC(C)C)NC(=O)[C@H](Cc1ccc(O)cc1)NC(=O)CNC(=O)[C@H](C)NC(=O)[C@H](CO)NC(=O)[C@H](CC(N)=O)NC(=O)[C@H](CC(C)C)NC(=O)[C@@H](NC(=O)[C@H](Cc1c[nH]c2ccccc12)NC(=O)CN)[C@@H](C)O)C(N)=O [Galanin (1-13)-Spantide-Amide, M40] (H-GWTLNSAGYLLGP[dR]PKPQQ[dW]F[dW]LL-NH2; N-terminus assumed)
cAMP (pmol/well) [3, 4]: 0.82 ± 0.08 pmol/well
ATP (nM ATP/well) ([2]; Table 2, 100 nM, 4 days): 7.10 ± 0.5 nM ATP/well

CC[C@H](C)[C@H](NC(=O)[C@H](Cc1ccccc1)NC(=O)[C@H](CCC(=O)O)NC(=O)[C@H](CCCCN)NC(=O)[C@H](C)NC(=O)[C@H](C)NC(=O)[C@H](CCC(N)=O)NC(=O)CNC(=O)[C@H](CCC(=O)O)NC(=O)[C@H](CC(C)C)NC(=O)[C@H](Cc1ccc(O)cc1)NC(=O)[C@H](CO)NC(=O)[C@H](CO)NC(=O)[C@@H](NC(=O)[C@H](CC(=O)O)NC(=O)[C@H](CO)NC(=O)[C@@H](NC(=O)[C@H](Cc1ccccc1)NC(=O)[C@@H](NC(=O)CNC(=O)[C@H](CCC(=O)O)NC(=O)[C@H](C)NC(=O)[C@@H](N)Cc1c[nH]cn1)[C@@H](C)O)[C@@H](C)O)C(C)C)C(=O)N[C@@H](C)C(=O)N[C@@H](Cc1c[nH]c2ccccc12)C(=O)N[C@@H](CC(C)C)C(=O)N[C@H](C(=O)N[C@@H](CCCCN)C(=O)NCC(=O)N[C@@H](CCCNC(=N)N)C(=O)NCC(=O)O)C(C)C [Glucagon-Like Peptide-1 (7-37) (Human)]
cAMP (pmol/well) [3, 5]: 0.08 ± 0.01 pmol/well
Fold Induction cAMP ([3]; Table 2, 100 nM): 1.4* (100 nM) fold
ATP (nM ATP/well) ([2]; Table 2, 1000 nM, 4 days): 18.3 ± 1.4 nM ATP/well
Fold Induction ATP [2, 6]: 1.3** fold

CCCCC#Cc1nc(N)c2ncn([C@@H]3O[C@H](C(=O)NCC)[C@@H](O)[C@H]3O)c2n1 [HE-NECA]
cAMP (pmol/well) [3, 7]: 3.32 ± 0.28 pmol/well
Fold Induction cAMP ([3]; Table 2, 10 nM): 1.8*** (10 nM) fold
ATP (nM ATP/well) ([2]; Table 2, 1000 nM, 4 days): 8.2 ± 1.1 nM ATP/well
Fold Induction ATP [2, 6]: 1.8** fold

CCCC(=O)Nc1ncnc2c1ncn2[C@@H]1O[C@H](CO)[C@@H](O)[C@H]1OC(=O)CCC [N-6,2-O-Dibutyryladenosine, n-6,2-o-dibutyryladenosine]
cAMP (pmol/well) [3, 8]: 0.10 ± 0.01 pmol/well
Fold Induction cAMP [3, 8]: 4.5** fold
ATP (nM ATP/well) [2, 9]: 13.9 ± 1.1 nM ATP/well
Fold Induction ATP ([2]; Table 1, 100 nM, 4 days, vs vehicle treated cells): 1.5** fold
proliferation of neural stem cells [2]: increase

Oc1ccc2c3c1O[C@H]1c4[nH]c5c(c4C[C@@]4(O)[C@@H](C2)N(CC2CC2)CC[C@]314)C[C@@]1(O)[C@H]2Cc3ccc(O)c4c3[C@@]1(CCN2CC1CC1)[C@H]5O4 [Nor-Binaltorphimine, nor-Binaltorphimine]
fold induction at 10 pM ([3]; Mus musculus, Neural stem cell, read-out: Fold Induction cAMP): 6.3
cAMP (pmol/well) ([3]; Table 2, 0.01 nM (bracketed cAMP concentration)): 6.10 ± 3.72 pmol/well
fold induction at 0.0001 µM [2, 10]: 1.4
ATP (nM ATP/well) ([2]; Table 2, 0.1 nM, 4 days): 19.4 ± 3.2 nM ATP/well

COc1ccc(C2CNC(=O)C2)cc1OC1CCCC1 (centres unmarked) [Rolipram, rolipram]
fold induction at 0.1 µM ([3]; Mus musculus, Neural stem cell, 0.25 h, read-out: Fold Induction cAMP): 3.8
cAMP (pmol/well) [3, 8]: 0.09 ± 0.03 pmol/well
fold induction at 0.1 µM [2, 10]: 1.1
ATP (nM ATP/well) [2, 9]: 10.4 ± 0.4 nM ATP/well
proliferation of neural stem cells [2]: increase

CC[C@H](C)[C@H](NC(=O)[C@H](CO)NC(=O)[C@H](CC(N)=O)NC(=O)[C@H](CC(C)C)NC(=O)[C@H](Cc1ccc(O)cc1)NC(=O)[C@H](CCCCN)NC(=O)[C@H](CCCCN)NC(=O)[C@@H](NC(=O)[C@H](C)NC(=O)[C@H](CCSC)NC(=O)[C@H](CCC(N)=O)NC(=O)[C@H](CCCCN)NC(=O)[C@H](CCCNC(=N)N)NC(=O)[C@H](CC(C)C)NC(=O)[C@H](CCCNC(=N)N)NC(=O)[C@@H](NC(=O)[C@H](Cc1ccc(O)cc1)NC(=O)[C@H](CC(N)=O)NC(=O)[C@H](CC(=O)O)NC(=O)[C@@H](NC(=O)[C@H](Cc1ccccc1)NC(=O)[C@@H](NC(=O)[C@H](C)NC(=O)[C@H](CC(=O)O)NC(=O)[C@H](CO)NC(=O)[C@@H](N)Cc1c[nH]cn1)C(C)C)[C@@H](C)O)[C@@H](C)O)C(C)C)C(=O)N[C@@H](CC(C)C)C(=O)N[C@@H](CC(N)=O)C(N)=O [Vasoactive Intestinal Peptide (Human, Porcine, Rat)]
cAMP (pmol/well) [3, 5]: 0.39 ± 0.12 pmol/well
ATP (nM ATP/well) ([2]; Table 2, 1000 nM, 4 days): 20.6 ± 1.2 nM ATP/well

CSCC[C@H](NC(=O)[C@H](CC(C)C)NC(=O)[C@@H]1CCCN1C(=O)[C@H](Cc1ccc(O)cc1)NC(=O)[C@H](Cc1ccccc1)NC(=O)[C@@H]1CSSC[C@H](NC(=O)[C@@H]2CCCN2C(=O)[C@@H](N)CCCNC(=N)N)C(=O)N2CCC[C@H]2C(=O)N[C@@H](CCC(N)=O)C(=O)N1)C(N)=O [[Cys3,6, Tyr8, Pro9]-Substance P] (H-RPCPQCFYPLM-NH2; disulfide 3-6 (inferred); N-terminus and C-terminus assumed)
cAMP (pmol/well) [3, 5]: 0.29 ± 10 pmol/well
ATP (nM ATP/well) ([2]; Table 2, 100 nM, 4 days): 11.2 ± 0.4 nM ATP/well

CC(C)C[C@H](NC(=O)[C@@H]1CCCN1C(=O)[C@H](CO)NC(=O)[C@H](Cc1ccccc1)NC(=O)CNC(=O)[C@@H]1CCCN1C(=O)[C@@H]1CCCN1C(=O)[C@@H](N)CCCNC(=N)N)C(=O)O [[Des-Arg9, Leu8]-Bradykinin]
cAMP (pmol/well) [3, 4]: 0.09 ± 0.02 pmol/well
Fold Induction cAMP ([3]; Table 2, 1 nM): 2.6* (1 nM) fold
ATP (nM ATP/well) ([2]; Table 2, 10 nM, 4 days): 9.8 ± 0.4 nM ATP/well
Fold Induction ATP ([2]; Table 2, 10 nM, 4 days, vs vehicle): 1.1* fold

CCCC[C@H](NC(=O)[C@H](CO)NC(=O)[C@H](CC(N)=O)NC(=O)[C@H](CC(C)C)NC(=O)[C@H](Cc1c[nH]cn1)NC(=O)[C@H](CCCCN)NC(=O)CNC(=O)[C@H](CC(C)C)NC(=O)[C@H](CC(N)=O)NC(=O)[C@H](Cc1c[nH]cn1)NC(=O)[C@H](CCCC)NC(=O)[C@H](CC(C)C)NC(=O)[C@H](CCC(N)=O)NC(=O)[C@@H](NC(=O)[C@H](CCC(=O)O)NC(=O)[C@H](CO)NC(=O)[C@@H](NC(=O)[C@@H](N)CO)C(C)C)[C@@H](C)CC)C(=O)N[C@@H](CCC(=O)O)C(=O)N[C@@H](CCCNC(=N)N)C(=O)N[C@H](C(=O)N[C@@H](CCC(=O)O)C(=O)N[C@@H](Cc1c[nH]c2ccccc12)C(=O)N[C@@H](CC(C)C)C(=O)N[C@@H](CCCNC(=N)N)C(=O)N[C@@H](CCCCN)C(=O)N[C@@H](CCCCN)C(=O)N[C@@H](CC(C)C)C(=O)N[C@@H](CCC(N)=O)C(=O)N[C@@H](CC(=O)O)C(=O)N[C@H](C(=O)N[C@@H](Cc1c[nH]cn1)C(=O)N[C@@H](CC(N)=O)C(=O)N[C@@H](Cc1ccc(O)cc1)C(N)=O)C(C)C)C(C)C [[Nle8,18, Tyr34]-Parathyroid Hormone (1-34) Amide (Human)]
cAMP (pmol/well) [3, 7]: 0.16 ± 0.05 pmol/well
Fold Induction cAMP ([3]; Table 2, 10 nM): 2.6* (10 nM) fold
ATP (nM ATP/well) ([2]; Table 2, 1000 nM, 4 days): 23.5 ± 2.7 nM ATP/well
Fold Induction ATP [2, 6]: 1.7** fold

CC(C)C[C@H](NC(=O)CN(C)C(=O)[C@H](Cc1ccccc1)NC(=O)[C@H](Cc1ccccc1)NC(=O)[C@H](CCC(N)=O)NC(=O)[C@H](CCC(N)=O)NC(=O)[C@@H]1CCCN1C(=O)[C@H](CCCCN)NC(=O)[C@@H]1CCCN1C(=O)[C@@H](N)CCCNC(=N)N)C(=O)N[C@@H](CCS(C)(=O)=O)C(N)=O [[Sar9, Met (0)11]-Substance P]
cAMP (pmol/well) [3, 5]: 0.16 ± 0.05 pmol/well
ATP (nM ATP/well) ([2]; Table 2, 100 nM, 4 days): 39.7 ± 2.1 nM ATP/well
